Measurements taken from US6465505B1, “Benzyl-substituted benzimidazoles” (AstraZeneca AB, priority 1996, dated 2002).

Tested on: acid secretion in isolated rabbit gastric glands
Experiment: Acid secretion inhibition in isolated rabbit gastric glands
Type: cell-based
Conditions: Oryctolagus cuniculus, in vitro, read-out: IC50, inhibiting effect on acid secretion in vitro
Experimental: Acid Secretion Inhibition in Isolated Rabbit Gastric Glands
Inhibiting effect on acid secretion in vitro in isolated rabbit gastric glands was measured as described by Berglindh et al. (1976) Acta Physiol. Scand. 97, 401-414.

IC50 [µM]	Structure (SMILES)
7.8	Cc1nc2c(OCc3ccccc3)cccc2[nH]1 [Compound (B), 4-benzyloxy-2-methyl benzimidazole]
12.9	Cc1nc2c(NCc3ccccc3)cccc2[nH]1 [Compound (A), 4-benzylamino-2-methylbenzimidazole]
